{
  "source": "patent US7638525B2",
  "about": "(Janssen Pharmaceutica N.V., priority 2004, dated 2009)",
  "data": [
    {"tested_on": "T47D human breast cancer cells", "test": "In vitro test: alkaline phosphatase assay in T47D human breast cancer cells", "type": "cell-based", "settings": "alkaline phosphatase luminescence after 24 h with compound, test concentration not given", "description": "T47D human breast cancer cells are grown in RPMI medium without phenol red (Invitrogen) containing 10% (v/v) heat-inactivated fetal bovine serum (FBS; Hyclone), 1% (v/v) penicillin-streptomycin (Invitrogen), 1% (w/v) glutamine (Invitrogen), and […] (Sigma). Incubation conditions are 37° C. in a humidified 5% (v/v) carbon dioxide environment. For assay, the cells are plated in 96-well tissue culture plates at 10,000 cells per well in assay medium [RPMI medium without phenol red (Invitrogen) containing 5% (v/v) charcoal-treated FBS (Hyclone) and 1% (v/v) penicillin-streptomycin (Invitrogen)]. Two days later, the medium is decanted and the compounds are added in a final concentration of 0.1% (v/v) dimethyl sulfoxide in fresh assay medium. Twenty-four hours later, an alkaline phosphatase assay is performed using a SEAP kit (BD Biosciences Clontech, Palo Alto, Calif.). Briefly, the medium is decanted and the cells are fixed for 30 minutes at room temperature with 5% (v/v) formalin (Sigma). The cells are washed once with room temperature Hank's buffered saline solution (Invitrogen). Equal volumes (0.05 mL) of 1× Dilution Buffer, Assay Buffer and 1:20 substrate/enhancer mixture are added. After 1-hour incubation at room temperature in the dark, the lysate is transferred to a white 96-well plate (Dynex) and luminescence is read using a LuminoSkan Ascent (Thermo Electron, Woburn, Mass.).", "units": {"% inhibition": "%"}, "values": [
      {"molecule": "O=C1CCN(c2sc(C(=O)c3ccccc3)cc2-c2ccncc2)CC1", "note": "[Example 11, 1-(5-Benzoyl-3-pyridin-4-yl-thiophen-2-yl)-piperidin-4-one]", "% inhibition": 35},
      {"molecule": "O=C(c1ccc([N+](=O)[O-])cc1)c1cc(-c2ccncc2)c(N2CCC3(CC2)OCCO3)s1", "note": "[Example 4, [5-(1 4-Dioxa-8-aza-spiro[4.5]-dec-8-yl)-4-pyridin-4-yl-thiophen-2-yl]-(4-nitro-phenyl)-methanone]", "% inhibition": 0},
      {"molecule": "CCC(=O)c1cc(-c2ccncc2)c(N2CCC(=O)CC2)s1", "note": "[Example 18, 1-(5-Propionyl-3-pyridin-4-yl-thiophen-2-yl)-piperidin-4-one]", "% inhibition": 26},
      {"molecule": "O=C(c1ccccc1)c1cc(-c2ccncc2)c(N2CCC3(CC2)OCCO3)s1", "note": "[Example 6, [5-(1,4-Dioxa-8-aza-spiro[4.5]-dec-8-yl)-4-pyridin-4-yl-thiophen-2-yl]-phenyl-methanone]", "% inhibition": 34},
      {"molecule": "O=C(c1ccc(Cl)cc1)c1cc(-c2ccncc2)c(N2CCC3(CC2)OCCO3)s1", "note": "[Example 3, (4-Chloro-phenyl)-[5-(1 4-dioxa-8-aza-spiro[4.5]-dec-8-yl)-4-pyridin-4-yl-thiophen-2-yl]-methanone]", "% inhibition": 27},
      {"molecule": "O=C(c1ccc(F)cc1)c1cc(-c2ccncc2)c(N2CCC3(CC2)OCCO3)s1", "note": "[Example 2, [5-(1,4-Dioxa-8-aza-spiro[4.5]-dec-8-yl)-4-pyridin-4-yl-thiophen-2-yl]-(4-fluoro-phenyl)-methanone]", "% inhibition": 15},
      {"molecule": "O=C(c1ccc(Cl)c(Cl)c1)c1cc(-c2ccncc2)c(N2CCC3(CC2)OCCO3)s1", "note": "[Example 1, (3,4-Dichloro-phenyl)-[5-(1,4-dioxa-8-aza-spiro[4.5]-dec-8-yl)-4-pyridin-4-yl-thiophen-2-yl]-methanon]", "% inhibition": 6},
      {"molecule": "O=C1CCN(c2sc(C(=O)c3ccc([N+](=O)[O-])cc3)cc2-c2ccncc2)CC1", "note": "[Example 17, 1-[5-(4-Nitro-benzoyl)-3-pyridin-4-yl-thiophen-2-yl]-piperidi n-4-one]", "% inhibition": 30},
      {"molecule": "COc1ccccc1C(=O)c1cc(-c2ccncc2)c(N2CCC3(CC2)OCCO3)s1", "note": "[Example 9, [5-(1,4-Dioxa-8-aza-spiro[4.5]-dec-8-yl)-4-pyridin-4-yl-thiophen-2-yl]-(2-methoxy-phenyl)-methanone]", "% inhibition": 30},
      {"molecule": "O=C1CCN(c2sc(C(=O)c3cc(C(F)(F)F)cc(C(F)(F)F)c3)cc2-c2ccncc2)CC1", "note": "[Example 14, 1-[5-(3,5-Bis-trifluoromethyl-benzoyl)-3-pyridin-4-yl-thiophen-2-yl]-piperidin-4-one]", "% inhibition": 57},
      {"molecule": "O=C1CCN(c2sc(C(=O)c3cccc([N+](=O)[O-])c3)cc2-c2ccncc2)CC1", "note": "[Example 19]", "% inhibition": 29},
      {"molecule": "O=C(c1cc(C(F)(F)F)cc(C(F)(F)F)c1)c1cc(-c2ccncc2)c(N2CCC3(CC2)OCCO3)s1", "note": "[Example 8, (3,5-Bis-trifluoromethyl-phenyl)-[5-(1 4-dioxa-8-aza-spiro[4.5]-dec-8-yl)-4-pyridin-4-yl-thiophen-2-yl]-methanone]", "% inhibition": 0},
      {"molecule": "O=C1CCN(c2sc(C(=O)c3ccc(F)cc3)cc2-c2ccncc2)CC1", "note": "[Example 13, 1-[5-(4-Fluoro-benzoyl)-3-pyridin-4-yl-thiophen-2-yl]-piperidin-4-one]", "% inhibition": 46},
      {"molecule": "COc1ccccc1C(=O)c1cc(-c2ccncc2)c(N2CCC(=O)CC2)s1", "note": "[Example 15, 1-[5-(2-Methoxy-benzoyl)-3-pyridin-4-yl-thiophen-2-yl]-piperidin-4-one]", "% inhibition": 39},
      {"molecule": "O=C1CCN(c2sc(C(=O)c3ccc(Cl)cc3)cc2-c2ccncc2)CC1", "note": "[Example 16, 1-[5-(4-Chloro-benzoyl)-3-pyridin-4-yl-thiophen-2-yl]-piperidin-4-one]", "% inhibition": 30},
      {"molecule": "COc1cccc(C(=O)c2cc(-c3ccncc3)c(N3CCC(=O)CC3)s2)c1", "note": "[Example 12, 1-[5-(3-Methoxy-benzoyl)-3-pyridin-4-yl-thiophen-2-yl]-piperidin-4-one]", "% inhibition": 24},
      {"molecule": "O=C(c1cccc(Br)c1)c1cc(-c2ccncc2)c(N2CCC3(CC2)OCCO3)s1", "note": "[Example 10, (3-Bromo-phenyl)-[5-(1,4-dioxa-8-aza-spiro[4.5]-dec-8-yl)-4-pyridin-4-yl-thiophen-2-yl]-methanone]", "% inhibition": 42},
      {"molecule": "CCC(=O)c1cc(-c2ccncc2)c(N2CCC3(CC2)OCCO3)s1", "note": "[Example 5, 1-[5-(1,4-Dioxa-8-aza-spiro[4.5]-dec-8-yl)-4-pyridin-4-yl-thiophen-2-yl]-1-one]", "% inhibition": 0},
      {"molecule": "O=C1CCN(c2sc(C(=O)c3cccc(Br)c3)cc2-c2ccncc2)CC1", "note": "[Example 20, 1-[5-(3-Bromo-benzoyl)-3-pyridin-4-yl-thiophen-2-yl]-piperidin-4-one]", "% inhibition": 23},
      {"molecule": "COc1cccc(C(=O)c2cc(-c3ccncc3)c(N3CCC4(CC3)OCCO4)s2)c1", "note": "[Example 7, [5-(1,4-Dioxa-8-aza-spiro[4.5]-dec-8-yl)-4-pyridin-4-yl-thiophen-2-yl-](3-methoxy-phenyl)-methanone]", "% inhibition": 42}
    ]}
  ]
}
